Test results as given in PubChem BioAssay (NCI).
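How tested: cells in 96-well plates exposed to compound for 48 hours at five concentrations. Definition used: TGI = concentration required for complete inhibition of growth.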

Columns and labels:
Assay in all cases: NCI-60 cell line screen, 48 h
A498 renal = system: A498 renal
A549 NSCLC = system: A549 NSCLC
ACHN renal = system: ACHN renal
BT-549 breast = system: BT-549 breast
CAKI-1 renal = system: CAKI-1 renal
CCRF-CEM leukemia = system: CCRF-CEM leukemia
COLO 205 colon = system: COLO 205 colon
DU-145 prostate = system: DU-145 prostate
EKVX NSCLC = system: EKVX NSCLC
HCT-116 colon = system: HCT-116 colon
HCT-15 colon = system: HCT-15 colon
HL-60(TB) leukemia = system: HL-60(TB) leukemia
HOP-62 NSCLC = system: HOP-62 NSCLC
HOP-92 NSCLC = system: HOP-92 NSCLC
HS 578T breast = system: HS 578T breast
HT29 colon = system: HT29 colon
IGROV1 ovarian = system: IGROV1 ovarian
K-562 leukemia = system: K-562 leukemia
KM12 colon = system: KM12 colon
LOX IMVI melanoma = system: LOX IMVI melanoma
M14 melanoma = system: M14 melanoma
MALME-3M melanoma = system: MALME-3M melanoma
MCF7 breast = system: MCF7 breast
MDA-MB-231 breast = system: MDA-MB-231 breast
MDA-MB-435 = system: MDA-MB-435
MDA-N = system: MDA-N
MOLT-4 leukemia = system: MOLT-4 leukemia
NCI-H226 lung = system: NCI-H226 lung
NCI-H23 lung = system: NCI-H23 lung
NCI-H460 lung = system: NCI-H460 lung
NCI-H522 lung = system: NCI-H522 lung
NCI/ADR-RES ovarian = system: NCI/ADR-RES ovarian
OVCAR-3 ovarian = system: OVCAR-3 ovarian
OVCAR-4 ovarian = system: OVCAR-4 ovarian
OVCAR-5 ovarian = system: OVCAR-5 ovarian
OVCAR-8 ovarian = system: OVCAR-8 ovarian
PC-3 prostate = system: PC-3 prostate
RPMI-8226 leukemia = system: RPMI-8226 leukemia
RXF 393 renal = system: RXF 393 renal
SF-268 CNS = system: SF-268 CNS
SF-295 CNS = system: SF-295 CNS
SF-539 CNS = system: SF-539 CNS
SK-MEL-2 melanoma = system: SK-MEL-2 melanoma
SK-MEL-28 melanoma = system: SK-MEL-28 melanoma
SK-MEL-5 melanoma = system: SK-MEL-5 melanoma
SN12C renal = system: SN12C renal
SNB-19 CNS = system: SNB-19 CNS
SNB-75 CNS = system: SNB-75 CNS
SR leukemia = system: SR leukemia
SW-620 colon = system: SW-620 colon
T-47D breast = system: T-47D breast
TK-10 renal = system: TK-10 renal
U251 CNS = system: U251 CNS
UACC-257 melanoma = system: UACC-257 melanoma
UACC-62 melanoma = system: UACC-62 melanoma
UO-31 renal = system: UO-31 renal
786-0 renal = system: 786-0 renal
HCC-2998 colon = system: HCC-2998 colon
SK-OV-3 ovarian = system: SK-OV-3 ovarian

For `COc1nc2cccc(C(O)c3ccccc3)c2nc1-c1ccccc1` (centres undefined), the TGI (A498 renal) was 11.7 µM, the TGI (A549 NSCLC) was 54.5 µM and the TGI (ACHN renal) was 72.9 µM. It also gave a TGI (BT-549 breast) of 46.3 µM, a TGI (CAKI-1 renal) of 63.8 µM and a TGI (CCRF-CEM leukemia) of 10.8 µM. The TGI (COLO 205 colon) was 16.3 µM, the TGI (DU-145 prostate) was 26.9 µM and the TGI (EKVX NSCLC) was 41.9 µM. The TGI (HCT-116 colon) was 16.2 µM, the TGI (HCT-15 colon) was 26.5 µM and the TGI (HL-60(TB) leukemia) was 18 µM. It also gave a TGI (HOP-62 NSCLC) of 19.1 µM, a TGI (HOP-92 NSCLC) of 31.8 µM and a TGI (HS 578T breast) of 5.62 µM. For the same compound, the TGI (HT29 colon) was 72.4 µM, the TGI (IGROV1 ovarian) was 44.6 µM and the TGI (K-562 leukemia) was 19.7 µM. For the same compound, the TGI (KM12 colon) was over 100 µM, the TGI (LOX IMVI melanoma) was 22 µM and the TGI (M14 melanoma) was 21.2 µM. For the same compound, the TGI (MALME-3M melanoma) was over 100 µM, the TGI (MCF7 breast) was 32 µM and the TGI (MDA-MB-231 breast) was 31.9 µM. The TGI (MDA-MB-435) was 4.79 µM, the TGI (MDA-N) was 5.17 µM and the TGI (MOLT-4 leukemia) was 34.7 µM. It also gave a TGI (NCI-H226 lung) of 13.3 µM, a TGI (NCI-H23 lung) of 35.5 µM and a TGI (NCI-H460 lung) of 24.8 µM. The TGI (NCI-H522 lung) was 27.2 µM, the TGI (NCI/ADR-RES ovarian) was 15.9 µM and the TGI (OVCAR-3 ovarian) was 20.4 µM. It also gave a TGI (OVCAR-4 ovarian) of over 100 µM, a TGI (OVCAR-5 ovarian) of 54.8 µM and a TGI (OVCAR-8 ovarian) of over 100 µM. For the same compound, the TGI (PC-3 prostate) was 65.5 µM, the TGI (RPMI-8226 leukemia) was 10.8 µM and the TGI (RXF 393 renal) was 14.6 µM. For the same compound, the TGI (SF-268 CNS) was 33.4 µM, the TGI (SF-295 CNS) was 17 µM and the TGI (SF-539 CNS) was 8.23 µM. The TGI (SK-MEL-2 melanoma) was 33.3 µM, the TGI (SK-MEL-28 melanoma) was over 100 µM and the TGI (SK-MEL-5 melanoma) was 13.1 µM. It also gave a TGI (SN12C renal) of 25.6 µM, a TGI (SNB-19 CNS) of 51.1 µM and a TGI (SNB-75 CNS) of over 100 µM. It also gave a TGI (SR leukemia) of 12.4 µM, a TGI (SW-620 colon) of 16.6 µM and a TGI (T-47D breast) of 61.6 µM. The TGI (TK-10 renal) was over 100 µM, the TGI (U251 CNS) was 16.8 µM and the TGI (UACC-257 melanoma) was 26.9 µM. For the same compound, the TGI (UACC-62 melanoma) was 23.9 µM and the TGI (UO-31 renal) was 68.7 µM.
In the case of `CC(Oc1ccccc1Cl)C(=O)NN1C(=O)CC(=O)N(c2ccccc2)C1=S` (centres undefined), the TGI (786-0 renal) is reported as over 100 µM, the TGI (A498 renal) is reported as over 100 µM and the TGI (A549 NSCLC) is reported as over 100 µM. It also gave a TGI (ACHN renal) of over 100 µM, a TGI (BT-549 breast) of over 100 µM and a TGI (CAKI-1 renal) of over 100 µM. For the same compound, the TGI (COLO 205 colon) was over 100 µM, the TGI (DU-145 prostate) was over 100 µM and the TGI (EKVX NSCLC) was over 100 µM. For the same compound, the TGI (HCC-2998 colon) was over 100 µM, the TGI (HCT-116 colon) was over 100 µM and the TGI (HCT-15 colon) was over 100 µM. It also gave a TGI (HL-60(TB) leukemia) of 59.7 µM, a TGI (HOP-62 NSCLC) of over 100 µM and a TGI (HOP-92 NSCLC) of 68.8 µM. It also gave a TGI (HS 578T breast) of over 100 µM, a TGI (HT29 colon) of over 100 µM and a TGI (IGROV1 ovarian) of over 100 µM. It also gave a TGI (K-562 leukemia) of over 100 µM, a TGI (KM12 colon) of over 100 µM and a TGI (LOX IMVI melanoma) of over 100 µM. The TGI (M14 melanoma) was over 100 µM, the TGI (MALME-3M melanoma) was over 100 µM and the TGI (MCF7 breast) was over 100 µM. For the same compound, the TGI (MDA-MB-231 breast) was over 100 µM, the TGI (MDA-MB-435) was over 100 µM and the TGI (MDA-N) was over 100 µM. For the same compound, the TGI (MOLT-4 leukemia) was over 100 µM, the TGI (NCI-H226 lung) was over 100 µM and the TGI (NCI-H23 lung) was over 100 µM. The TGI (NCI-H460 lung) was over 100 µM, the TGI (NCI-H522 lung) was over 100 µM and the TGI (NCI/ADR-RES ovarian) was over 100 µM. The TGI (OVCAR-3 ovarian) was over 100 µM, the TGI (OVCAR-4 ovarian) was over 100 µM and the TGI (OVCAR-5 ovarian) was over 100 µM. For the same compound, the TGI (OVCAR-8 ovarian) was over 100 µM, the TGI (PC-3 prostate) was over 100 µM and the TGI (RPMI-8226 leukemia) was over 100 µM. The TGI (RXF 393 renal) was over 100 µM, the TGI (SF-268 CNS) was over 100 µM and the TGI (SF-295 CNS) was over 100 µM. The TGI (SF-539 CNS) was over 100 µM, the TGI (SK-MEL-2 melanoma) was over 100 µM and the TGI (SK-MEL-28 melanoma) was over 100 µM. It also gave a TGI (SK-MEL-5 melanoma) of over 100 µM, a TGI (SK-OV-3 ovarian) of over 100 µM and a TGI (SN12C renal) of over 100 µM. The TGI (SNB-19 CNS) was over 100 µM, the TGI (SNB-75 CNS) was over 100 µM and the TGI (SR leukemia) was over 100 µM. The TGI (SW-620 colon) was over 100 µM, the TGI (T-47D breast) was over 100 µM and the TGI (TK-10 renal) was over 100 µM. It also gave a TGI (U251 CNS) of over 100 µM, a TGI (UACC-257 melanoma) of over 100 µM and a TGI (UACC-62 melanoma) of over 100 µM. For the same compound, the TGI (UO-31 renal) was over 100 µM.
